Each molecule was assayed against T1, peptide amidase from Xanthomonas maltophilia (Stenotrophomonas maltophilia, UniProt Q8RJN5) (assay: Splitting of racemic mixtures of N-protected amino acid amides). Details: racemic substrate 10 mM, 20 U peptide amidase in 50 ml, 50 mM triethylammonium carbonate pH 7.5, 30° C.
T1 construct: wild type, not recombinant
T1 sequence (Q8RJN5 34-540): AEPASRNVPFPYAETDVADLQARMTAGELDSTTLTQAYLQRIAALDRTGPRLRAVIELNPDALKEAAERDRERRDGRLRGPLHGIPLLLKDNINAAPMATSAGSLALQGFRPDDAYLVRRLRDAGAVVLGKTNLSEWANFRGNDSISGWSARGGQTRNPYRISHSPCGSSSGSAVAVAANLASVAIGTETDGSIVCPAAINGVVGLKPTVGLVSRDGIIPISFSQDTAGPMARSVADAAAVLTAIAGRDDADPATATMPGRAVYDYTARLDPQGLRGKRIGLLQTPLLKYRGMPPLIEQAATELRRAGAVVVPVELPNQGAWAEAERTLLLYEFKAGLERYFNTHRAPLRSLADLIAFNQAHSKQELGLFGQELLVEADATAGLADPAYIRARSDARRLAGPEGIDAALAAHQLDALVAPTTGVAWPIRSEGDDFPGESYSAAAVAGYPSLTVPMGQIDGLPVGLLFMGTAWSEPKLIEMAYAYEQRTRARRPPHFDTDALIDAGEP
Type: biochemical
Method: The tests for the splitting [separation] of racemic mixtures took place in 50 mM triethylammonium carbonate buffer, pH 7.5. The test batches a 50 ml with 20 U peptide amidase each were incubated at 30° C. Z-D,L-Ala-NH2, Ac-D,L-Met-NH2 and Ac-D,L-neopentylglycine amide (Ac-D,L-Npg-NH2) were available as substrates. The concentration of the substrates in the reaction batch was 10 mM. Specimens were taken at different times, the reaction stopped by heating for 5 minutes at 95° C. and the enantiomeric purity examined with HPLC.

SMILES | enantiomeric purity examined with HPLC (share of the enantiomer in the acid product)
CSCC[C@@H](NC(C)=O)C(=O)O [Ac-D-Met-OH] | 0.2-0.3%
CC(=O)N[C@H](CC(C)(C)C)C(=O)O [Ac-D-Npg-OH] | 0.2%
CSCC[C@H](NC(C)=O)C(=O)O [Ac-L-Met-OH] | 99.7-99.8%
CC(=O)N[C@@H](CC(C)(C)C)C(=O)O [Ac-L-Npg-OH, N-acetyl-L-neopentylglycine] | 99.8%
C[C@@H](NC(=O)OCc1ccccc1)C(=O)O [Z-D-Ala-OH] | 0.4%

Each molecule was assayed against T1, peptide amidase from Xanthomonas maltophilia (assay: biochemical). Details: not given.
Type: biochemical

SMILES | inhibition of the microbial peptide amidase (serine groups)
NCCc1ccc(S(=O)(=O)F)cc1 [Pefabloc] | Inhibition

Same assay, conditions: inhibitor 0.3 mM, preincubation 1 h 30° C., Z-Gly-Tyr-NH2 10 mM

SMILES | residual activity
NCCc1ccc(S(=O)(=O)F)cc1 [Pefabloc] | 62%

Same assay, conditions: inhibitor 0.1 Mm, preincubation 1 h 30° C., Z-Gly-Tyr-NH2 10 mM

SMILES | residual activity
NCCc1ccc(S(=O)(=O)F)cc1 [Pefabloc] | 82%

Same assay, conditions: potential inhibitor 10 mM in the test, preincubation 1 h 30° C., Z-Gly-Tyr-NH2 10 mM, 2.5 h

SMILES | residual activity
O.O.O.O.O.O.[Cl-].[Cl-].[Co+2] [CoCl2 *6 H2 O] | 80%
O.O.O.O.O.O=S(=O)([O-])[O-].[Cu+2] [CuSO4 *5 H2 O] | 103%
O.O.O.O.O.O.[Cl][Hg][Cl] [HgCl2 *6 H2 O] | 67%
O.O.O.O.O.O.[Cl][Ni][Cl] [NiCl2 *6 H2 O] | 93%
NCCc1ccc(S(=O)(=O)F)cc1 [Pefabloc] | 0%

Same assay, conditions: potential inhibitor 10 mM in the test, preincubation 1 h 30° C., Z-Gly-Tyr-NH2 10 mM, 2.5 h; read-out: residual activity

remaining activity at 10000 µM | SMILES
96% | O[C@H](CS)[C@H](O)CS (relative stereo) [1,4-dithio-D,L-threitol]
92% | c1cnc2c(c1)ccc1cccnc12 [1,10-phenanthroline]
106% | CCCCC[C@H](CC(=O)NO)C(=O)N[C@H](C(=O)N1CCC[C@H]1CO)C(C)C [Actinonine]
100% | N[C@@H]1CONC1=O [D-cycloserine]

SMILES | remaining activity at 10000 µM
c1ccc(-c2ccccn2)nc1 [2,2'-dipyridyl] | 97%
NNC(N)=O [Semicarbazide] | 99%

Same assay, conditions: read-out: residual activity

SMILES | remaining activity at 10000 µM
O=C(O)CN(CCN(CC(=O)O)CC(=O)O)CC(=O)O [EDTA] | 96%

Each molecule was assayed on Xanthomonas maltophilia (assay: Inducibility of peptide amidase from Xanthomonas maltophilia). Details: additive in the nutrient medium (amide 0.5%), 2 days, 30° C., 120 rpm.
Type: cell-based
Method: 1 l Erlenmeyer flasks were provided with 200 ml of the nutrient medium used in the second part of the screening for the examinations of the inducibility of peptide amidase from Xanthomonas maltophilia. The amount of yeast extract was raised to 0.1% thereby and only one amide derivative added to 0.5% of the medium in each instance. In addition, media without the addition of amides and with 1.5% yeast extract were examined. Ac-DL-Met-NH2, leucine amide and carnitine amide were used as amides. The flasks were inoculated to 0.5% and agitated 2 days at 30° C. and 120 rpm. The obtention of the raw extracts took place as already described above.

SMILES | Activity (peptide amidase in raw extract) | Spec. activity (peptide amidase in raw extract)
CSCCC(NC(C)=O)C(N)=O (racemic) [Ac-D,L-Met-NH2, N-Ac-D,L-methionine amide] | 88 mU/ml | 13 mU/mg BSAeq
C[N+](C)(C)CC(O)CC(N)=O (stereo not shown) [Carnitine amide, carnitine amide] | 30 mU/ml | 7 mU/mg BSAeq
CC(C)C[C@H](N)C(N)=O [Leu-NH2, leucine amide] | 15 mU/ml | 3 mU/mg BSAeq

Same assay, conditions: compared with medium without additive

SMILES | change of the specific activity by addition of the inductor
CSCCC(NC(C)=O)C(N)=O (racemic) [Ac-D,L-Met-NH2, N-Ac-D,L-methionine amide] | doubled to tripled

These molecules were tested against T1, peptide amidase from Xanthomonas maltophilia (assay: Enzymatic conversion of unprotected amino acid amides, thin-layer chromatography). Details: substrate 10 mM.
Type: biochemical
Method: (§1) 18 mU of peptide amidase (purification state after the gel filtration) per ml test batch was used for the substrate spectrum of peptide amidase from Xanthomonas maltophilia. The concentration of the tested substrates was 10 mM in the reaction batch. Unless otherwise indicated, L-amino acid derivatives were used. The incubation took place in 50 mM tris/HCl, pH 7.5 at 30° C. for 3 hours. The reaction was stopped by heating for 5 minutes at 95° C. The determination of activity took place using enzymatic determination of the released ammonia (Bergmeyer, U. (1985): Methods of Enzymatic Analysis, p. 459, VCH Verlagsgesellschaft, Weinheim).
The following thin-layer chromatographic methods were used for the analysis of the substrates and products cited in table 4d. To this end 1 μl of the stopped reaction batch was applied.

SMILES | Conversion (unprotected amino acid amides) | Conversion (unprotected amino acid amides, Table 4d)
CC(C)C[C@H](N)C(N)=O [H-Leu-NH2] | 0 | 0
NCCCC[C@H](N)C(N)=O [H-Lys-NH2] | 0 | 0
CSCC[C@H](N)C(N)=O [H-Met-NH2] | 0 | 0
NC(=O)[C@@H](N)Cc1ccccc1 [H-Phe-NH2] | 0 | 0
NC(=O)[C@@H](N)CO [H-Ser-NH2] | 0 | 0
C[C@@H](O)[C@H](N)C(N)=O [H-Thr-NH2] | 0 | 0
NC(=O)[C@@H](N)Cc1c[nH]c2ccccc12 [H-Trp-NH2] | 0 | 0
NC(=O)[C@@H](N)Cc1ccc(O)cc1 [H-Tyr-NH2] | 0 | 0
CC(C)[C@H](N)C(N)=O [H-Val-NH2] | 0 | 0
N=C(N)NCCC[C@H](N)C(N)=O [H-arg-NH2] | 0 | 0

The molecules below were run against T1, peptide amidase from Xanthomonas maltophilia (assay: Substrate spectrum of peptide amidase, enzymatic determination of the released ammonia). Details: substrate 10 mM, 18 mU peptide amidase per ml, 50 mM tris/HCl pH 7.5, 30° C., 3 hours.
Type: biochemical
Method: as §1

SMILES | Relative conversion (conversion of N-acetyl amino acid amides, Table 4b) | Relative conversion (influence of protective group and adjacent amino acid, Table 4c)
CSCCC(NC(C)=O)C(N)=O (racemic) [Ac-D,L-Met-NH2, N-Ac-D,L-methionine amide] | 102% | 102%

— patent US6333176A (Degussa Aktiengesellschaft, priority 1994, dated 2001)
